{"source": "patent US20140106342A1", "about": "“METHOD OF ASSAYING DNA TOPOISOMERASES AND DNA BINDING PROTEINS USING HIGH THROUGHPUT SCREENING” (priority 2011, published 2014)", "key": {"Y723F topo I mutant": {"biological_target": "T1, Y723F topo I mutant (Homo sapiens, UniProt P11387, Y723F)", "T1 construct": "purchased TopoGEN, Inc. (Port Orange, Fla.); host or cells: baculovirus expression (Sf9)", "T1 sequence (P11387 1-765 Y723F)": "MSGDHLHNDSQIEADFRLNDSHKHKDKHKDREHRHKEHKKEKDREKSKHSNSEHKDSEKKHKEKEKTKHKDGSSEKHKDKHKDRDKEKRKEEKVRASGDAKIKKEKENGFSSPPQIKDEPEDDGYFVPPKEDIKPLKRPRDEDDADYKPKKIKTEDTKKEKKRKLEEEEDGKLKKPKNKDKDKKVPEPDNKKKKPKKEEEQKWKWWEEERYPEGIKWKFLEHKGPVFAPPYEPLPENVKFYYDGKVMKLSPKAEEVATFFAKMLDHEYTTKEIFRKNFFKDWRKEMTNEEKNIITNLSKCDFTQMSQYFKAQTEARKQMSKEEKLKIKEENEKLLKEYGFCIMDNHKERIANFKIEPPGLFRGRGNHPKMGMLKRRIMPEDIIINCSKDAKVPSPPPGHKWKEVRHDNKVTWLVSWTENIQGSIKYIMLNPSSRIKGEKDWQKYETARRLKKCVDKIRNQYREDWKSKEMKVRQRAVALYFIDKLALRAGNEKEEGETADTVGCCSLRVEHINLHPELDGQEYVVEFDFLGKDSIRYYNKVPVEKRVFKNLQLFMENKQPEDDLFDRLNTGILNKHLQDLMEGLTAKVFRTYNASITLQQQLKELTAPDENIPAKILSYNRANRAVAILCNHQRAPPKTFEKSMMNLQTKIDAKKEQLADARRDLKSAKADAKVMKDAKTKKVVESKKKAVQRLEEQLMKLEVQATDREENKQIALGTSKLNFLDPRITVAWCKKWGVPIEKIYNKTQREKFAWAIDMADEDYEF", "assay": "Solid phase assay with catalytically inactive Y723F topo I mutant", "type": "biochemical", "conditions": "highest input of protein", "method": "The unbound enzyme was removed by aspirating off the initial binding solution followed by three washes (about 200 uL each) with cold PBS containing about 0.05% Tween-20 (PBS-T). […] Drugs were dissolved in DMSO and the final DMSO concentration in the reaction never exceeded about 1%. Reactions were incubated for about 1 hr at about 37° C. and terminated by the addition of about 0.1 vol of about 1% SDS (vol:vol) followed by a about 5 min incubation at about 37° C."}, "human Topo I [1]": {"biological_target": "T2, human Topo I (Homo sapiens, UniProt P11387)", "T2 sequence (P11387 1-765)": "T1 sequence (P11387 1-765 Y723F) with F723Y", "assay": "Solid phase topo I HTS assay (His-tag topo I on nickel coated plates, pHOT1 DNA retention by Picogreen fluorescence)", "type": "biochemical", "parameters": "The intact human topo I gene was cloned as a His-tag gene; purchased TopoGEN, Inc. (Port Orange, Fla.); host or cells: baculovirus-infected Spodoptera frugiperda Sf9 cells", "conditions": "for fold increase in DNA binding to wells due to CPT: 96 well", "method": "FIG. 8 is a flowchart depicting the model for solid phase Topo I screening. […] Free enzyme is washed out and pHOT1 supercoiled DNA is added in a topo I assay buffer. […] Free DNA is then washed out and the relative fluorescence is measured using Picogreen staining. […] The results are expressed as an “HTS Ratio” corresponding to the RFU of experimental to RFU of negative controls (no CPT).\nThe unbound enzyme was removed by aspirating off the initial binding solution followed by three washes (about 200 uL each) with cold PBS containing about 0.05% Tween-20 (PBS-T). […] Drugs were dissolved in DMSO and the final DMSO concentration in the reaction never exceeded about 1%. Reactions were incubated for about 1 hr at about 37° C. and terminated by the addition of about 0.1 vol of about 1% SDS (vol:vol) followed by a about 5 min incubation at about 37° C. The reaction mixture was next aspirated and washed three times with about 200 uL PBS-T. Picogreen (about 100 ug/mL) was diluted in TE (about 1:400) and about 200 µl was added to each well followed by incubation in the dark for about 5 min. The relative fluorescence was measured at about 485 nm excitation and about 525 nm emission wavelength using a Tecan reader.\nIn step 5, the readout (relative fluorescent units or RFU retained in the wells) is analyzed based on what is referred to as the ‘HTS Ratio’ (RFU Experimental/RFU in negative control).\nFree enzyme is washed out and pHOT1 supercoiled DNA is added in a topo I assay buffer. […] Free DNA is then washed out and the relative fluorescence is measured using Picogreen staining. […] The results are expressed as an “HTS Ratio” corresponding to the RFU of experimental to RFU of negative controls (no CPT)."}, "human Topo I [2]": {"biological_target": "T2, human Topo I", "assay": "Topo I cleavage complex formation / liquid reactions analysed on agarose-ethidium bromide gel"}, "pHOT1 DNA": {"test_system": "pHOT1 DNA", "assay": "Nicking of pHOT1 DNA in the absence of topo I", "method": ". This may explain why some bifunctional alkylators are picked up by the assay. […]. Thus, about 5 compounds out of about 50 scored as potential topo I IFP at about 100 uM input of purified test drug (single asterisk, FIG. 10). A relatively high input of test drug concentrations to amplify false positives was; however, in a typical HTS experiment the concentrations would be much lower and would detect far fewer false leads. […]."}, "[3]": {"conditions": "test drug about 100 uM, about 1.0 = minus CPT control, solid phase"}}, "note": "Positions count from the first letter of the chain named. Read-outs that look alike come from different tables or passages of the source. *1 amine or outer side, *2 acyl side, *3 side chain or, on linkers, in order; H or OH if unused. Where a SMILES comes first, the peptide text is derived from it. Bridges are numbered along the chain shown (N, C = ends). Roman numbers before positions name the chains, in order. [ ]: non-standard residue; d: D form. Actinocin(9to1) = Cc1c2oc3c(C)ccc(C(=O)[*:1])c3nc-2c(C(=O)[*:2])c(N)c1=O; NMeV = CN[C@H](C(=O)O)C(C)C; Sar = CNCC(=O)O"}
{"compound": "CC[C@@]1(O)C(=O)OCc2c1cc1n(c2=O)Cc2cc3ccccc3nc2-1", "note": "[CPT, Camptothecin]", "values": [{"measurement": "CPT stimulation of DNA binding with mutant protein", "setting": "Y723F topo I mutant", "result": "did not display any CPT stimulation"}, {"measurement": "magnitude of the increase in +CPT controls", "setting": "human Topo I [1]; 96 well format (comparison)", "result": "about 2.6 fold"}, {"measurement": "magnitude of the increase in +CPT controls", "setting": "human Topo I [1]; 384 well format", "result": "about 1.7 fold"}, {"measurement": "fraction of well-bound DNA that is nicked form II", "setting": "human Topo I [1]; CPT reactions, about 512 units topo I, about 5 uM CPT, no-CPT about 20%", "result": "about 70%"}, {"measurement": "fraction of well-bound DNA that is relaxed (Ir)", "setting": "human Topo I [1]; CPT reactions, about 512 units topo I, about 5 uM CPT, no-CPT about 80%", "result": "about 30%"}, {"measurement": "drug concentration dependency of solid phase readout", "setting": "human Topo I [1]; CPT titration, about 512 units topo I, about 100 ng DNA", "result": "did not display drug concentration dependency"}, {"measurement": "magnitude of the increase in form II DNA in +CPT wells over no drug controls", "setting": "human Topo I [1]; DNA recovered from wells, gel analysis", "result": "2-3 fold"}, {"measurement": "fold increase in DNA binding to wells due to CPT", "setting": "human Topo I [1]; about 16-64 units topo I, about 5 uM CPT", "result": "1.2-2 fold"}, {"measurement": "fold increase in DNA binding to wells due to CPT", "setting": "human Topo I [1]; about >100 units topo I, about 5 uM CPT", "result": "2.5-2.7 fold"}, {"measurement": "mean relative fluorescence, +CPT", "setting": "human Topo I [1]; high topo I inputs (about 1024, about 512 units), SD +/- about 153, -CPT mean about 1181", "result": "about 2877"}, {"measurement": "time course of CPT induced complexes", "setting": "human Topo I [1]; solid phase", "result": "continue to accumulate over several hours"}, {"measurement": "relative fluorescence (RFU) of a typical reaction, + control", "setting": "human Topo I [1]; typical reaction, - control about 2000", "result": "about 4000 fluorescent units"}, {"measurement": "time for CPT induced complexes to reach a maximal stoichiometric value", "setting": "human Topo I [2]; in solution", "result": "within a few minutes"}]}
{"compound": "Cc1c2oc3c(C)ccc(C(=O)N[C@@H]4C(=O)N[C@H](C(C)C)C(=O)N5CCC[C@H]5C(=O)N(C)CC(=O)N(C)[C@@H](C(C)C)C(=O)O[C@@H]4C)c3nc-2c(C(=O)N[C@@H]2C(=O)N[C@H](C(C)C)C(=O)N3CCC[C@H]3C(=O)N(C)CC(=O)N(C)[C@@H](C(C)C)C(=O)O[C@@H]2C)c(N)c1=O", "note": "[Dactinomycin] (I: T[dV]P[Sar][NMeV] / II: T[dV]P[Sar][NMeV]; ester I:1-I:C, II:1-II:C; linker I:N-II:N via Actinocin(9to1))", "values": [{"measurement": "HTS Ratio (RFU experimental / RFU negative control, no CPT)", "setting": "human Topo I [1]; [3]", "result": "about 1.4"}]}
{"compound": "CCc1c2c(nc3ccc(OC(=O)N4CCC(N5CCCCC5)CC4)cc13)-c1cc3c(c(=O)n1C2)COC(=O)[C@]3(O)CC", "note": "[Irinotecan]", "values": [{"measurement": "HTS Ratio (RFU experimental / RFU negative control, no CPT)", "setting": "human Topo I [1]; [3]", "result": "about 1.4"}]}
{"compound": "N[C@@H](Cc1ccc(N(CCCl)CCCl)cc1)C(=O)O", "note": "[Melphalan]", "values": [{"measurement": "HTS Ratio (RFU experimental / RFU negative control, no CPT)", "setting": "human Topo I [1]; [3]", "result": "1.2-1.3"}]}
{"compound": "CNNCc1ccc(C(=O)NC(C)C)cc1", "note": "[Procarbazine]", "values": [{"measurement": "HTS Ratio (RFU experimental / RFU negative control, no CPT)", "setting": "human Topo I [1]; [3]", "result": "about 1.65"}]}
{"compound": "O=C(c1ccc(OCCN2CCCCC2)cc1)c1c(-c2ccc(O)cc2)sc2cc(O)ccc12", "note": "[Raloxifene]", "values": [{"measurement": "HTS Ratio (RFU experimental / RFU negative control, no CPT)", "setting": "human Topo I [1]; test drug about 100 uM, about 1.0 = minus CPT control, solid phase, listed as Reloxifene", "result": "about 2.0"}]}
{"compound": "CC/C(=C(\\c1ccccc1)c1ccc(OCCN(C)C)cc1)c1ccccc1", "note": "[Tamoxifen]", "values": [{"measurement": "induction of topo I cleavages", "setting": "human Topo I [2]; data not shown, less than with CPT", "result": "induced topo I cleavages"}]}
{"compound": "Oc1ncc(N(CCCl)CCCl)c(O)n1", "note": "[Uracil mustard]", "values": [{"measurement": "single strand DNA nicks in pHOT1 DNA", "setting": "pHOT1 DNA", "result": "induce single strand DNA nicks"}, {"measurement": "HTS Ratio (RFU experimental / RFU negative control, no CPT)", "setting": "human Topo I [1]", "result": "about 1.1"}]}
{"compound": "O=C1c2c(O)ccc(O)c2C(=O)c2c(NCCNCCO)ccc(NCCNCCO)c21", "note": "[mitoxantrone]", "values": [{"measurement": "effect on DNA binding to bound topo I", "setting": "human Topo I [1]; solid phase HTS", "result": "strongly reduce DNA binding"}]}
